Laboratory results reported in patent US12077503B2, “Substituted cyclic amides and their use as herbicides” (FMC CORPORATION, priority 2015, dated 2024).

Experiments:
Type in all cases: in vivo
[1] = tested on: barnyardgrass (Echinochloa crus-galli); assay: Test A preemergence; settings: Echinochloa crus-galli, pre-emergence, 240 h, preemergence, read-out: Barnyardgrass plant response rating; for pest or weed control at 125 g/ha: 125 g ai/ha, approx. 10 d; for pest or weed control at 500 g/ha: 500 g ai/ha
In short: (§1)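 Visual injury scores from 0, no effect, to 100, complete control, were assigned versus untreated controls roughly 10 d after treatment in the greenhouse. Test chemicals, formulated with surfactant in a non-phytotoxic solvent, were applied to planted seeds as a preemergence soil spray or postemergence to one- to two-leaf plants 2 to 10 cm tall, in loam–sand soil.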

[2] = tested on: giant foxtail (Setaria faberii); assay: Test A preemergence; settings: Setaria faberi, pre-emergence, 240 h, preemergence, 0 to 100 scale where 0 is no effect and 100 is complete control, read-out: Foxtail, Giant plant response rating; for pest or weed control at 125 g/ha: 125 g ai/ha, approx. 10 d; for pest or weed control at 500 g/ha: 500 g ai/ha
In short: as §1

[3] = tested on: pigweed (Amaranthus retroflexus); assay: Test A preemergence; settings: Amaranthus retroflexus, pre-emergence, 240 h, preemergence, 0 to 100 scale where 0 is no effect and 100 is complete control, read-out: Pigweed plant response rating; for pest or weed control at 125 g/ha: 125 g ai/ha, approx. 10 d; for pest or weed control at 500 g/ha: 500 g ai/ha
[4] = tested on: ryegrass, Italian (Italian ryegrass, Lolium multiflorum); assay: Test A preemergence; settings: Lolium multiflorum, pre-emergence, 240 h, preemergence, 0 to 100 scale where 0 is no effect and 100 is complete control, read-out: Ryegrass, Italian plant response rating; for pest or weed control at 125 g/ha: 125 g ai/ha, approx. 10 d; for pest or weed control at 500 g/ha: 500 g ai/ha
In short: as §1

Kochia (Kochia scoparia) [5] = assay: Test A preemergence; settings: Bassia scoparia, pre-emergence, 240 h, preemergence, 0 to 100 scale where 0 is no effect and 100 is complete control, read-out: Kochia plant response rating; for pest or weed control at 125 g/ha: 125 g ai/ha, approx. 10 d; for pest or weed control at 500 g/ha: 500 g ai/ha
In short: as §1

[6] = tested on: ragweed (common ragweed, Ambrosia elatior); assay: Test A preemergence; settings: Ambrosia artemisiifolia, pre-emergence, 240 h, preemergence, 0 to 100 scale where 0 is no effect and 100 is complete control, read-out: Ragweed plant response rating; for pest or weed control at 125 g/ha: 125 g ai/ha, approx. 10 d; for pest or weed control at 500 g/ha: 500 g ai/ha
In short: as §1

[7] = tested on: barnyardgrass (Echinochloa crus-galli); assay: Test B flooded paddy test; settings: Echinochloa crus-galli, 250 g ai/ha, Flood; 0 to 100 scale where 0 is no effect and 100 is complete control; read-out: Barnyardgrass plant response rating
In short: (§2)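 Rating scale 0–100 (visual, vs untreated controls) after a 13–15 d greenhouse period; application to the flood layer, 3 cm above soil and maintained; plants at 2-leaf stage when treated.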

[8] = tested on: sedge, umbrella (small-flower umbrella sedge, Cyperus difformis); assay: Test B flooded paddy test; settings: Cyperus difformis, 250 g ai/ha, Flood; 0 to 100 scale where 0 is no effect and 100 is complete control; read-out: Sedge, Umbrella plant response rating
In short: as §2

[9] = tested on: ducksalad (Heteranthera limosa); assay: Test B flooded paddy test; settings: Heteranthera limosa, 250 g ai/ha, Flood; 0 to 100 scale where 0 is no effect and 100 is complete control; read-out: Ducksalad plant response rating
In short: as §2

rice (Oryra sativa) = assay: Test B flooded paddy test; settings: Oryza sativa, 250 g ai/ha, Flood; 0 to 100 scale where 0 is no effect and 100 is complete control; read-out: Rice plant response rating
In short: as §2

[10] = tested on: barnyardgrass (Echinochloa crus-galli); assay: Test A postemergence; settings: Echinochloa crus-galli, post-emergence, 240 h, postemergence, read-out: Barnyardgrass plant response rating; for pest or weed control at 125 g/ha: 125 g ai/ha, visual injury on 0 to 100 scale (0 no effect, 100 complete control), approx. 10 d; for pest or weed control at 500 g/ha: 500 g ai/ha, 0 to 100 scale, 0 is no effect, 100 is complete control
In short: as §1

corn (Zea mays) = assay: Test A postemergence; settings: Zea mays, post-emergence, 240 h, postemergence, read-out: Corn plant response rating; for plant injury at 125 g/ha: 125 g ai/ha, visual injury on 0 to 100 scale (0 no effect, 100 complete control), approx. 10 d; for plant injury at 500 g/ha: 500 g ai/ha, 0 to 100 scale, 0 is no effect, 100 is complete control
In short: as §1

[11] = tested on: Galium (catchweed bedstraw, Galium aparine); assay: Test A postemergence; settings: Galium, post-emergence, 240 h, postemergence, read-out: Galium plant response rating; for pest or weed control at 125 g/ha: 125 g ai/ha, visual injury on 0 to 100 scale (0 no effect, 100 complete control), approx. 10 d; for pest or weed control at 500 g/ha: 500 g ai/ha, 0 to 100 scale, 0 is no effect, 100 is complete control
In short: as §1

[12] = tested on: pigweed (Amaranthus retroflexus); assay: Test A postemergence; settings: Amaranthus retroflexus, post-emergence, 240 h, postemergence, read-out: Pigweed plant response rating; for pest or weed control at 125 g/ha: 125 g ai/ha, visual injury on 0 to 100 scale (0 no effect, 100 complete control), approx. 10 d; for pest or weed control at 500 g/ha: 500 g ai/ha, 0 to 100 scale, 0 is no effect, 100 is complete control
In short: as §1

Kochia (Kochia scoparia) [13] = assay: Test A postemergence; settings: Bassia scoparia, post-emergence, 240 h, postemergence, read-out: Kochia plant response rating; for pest or weed control at 125 g/ha: 125 g ai/ha, visual injury on 0 to 100 scale (0 no effect, 100 complete control), approx. 10 d; for pest or weed control at 500 g/ha: 500 g ai/ha, 0 to 100 scale, 0 is no effect, 100 is complete control
In short: as §1

[14] = 0 to 100 scale where 0 is no effect and 100 is complete control
[15] = visual injury rating about 10 d after treatment, 0 to 100 scale (0 no effect, 100 complete control)

SMILES	pest or weed control at 125 g/ha [1, 14] [%]	pest or weed control at 125 g/ha [2] [%]	pest or weed control at 500 g/ha [2] [%]	pest or weed control at 125 g/ha [3] [%]	pest or weed control at 500 g/ha [3] [%]	pest or weed control at 125 g/ha [4] [%]	pest or weed control at 500 g/ha [4] [%]	pest or weed control at 125 g/ha (Kochia (Kochia scoparia) [5]) [%]	pest or weed control at 500 g/ha (Kochia (Kochia scoparia) [5]) [%]	pest or weed control at 125 g/ha [6] [%]	pest or weed control at 500 g/ha [6] [%]	pest or weed control at 250 g/ha [7] [%]	pest or weed control at 250 g/ha [8] [%]	pest or weed control at 250 g/ha [9] [%]	pest or weed control at 250 g/ha (rice (Oryra sativa)) [%]	pest or weed control at 125 g/ha [10] [%]	pest or weed control at 500 g/ha [10] [%]	plant injury at 125 g/ha (corn (Zea mays)) [%]	plant injury at 500 g/ha (corn (Zea mays)) [%]	pest or weed control at 125 g/ha [11] [%]	also measured
CN1C[C@H](c2csc(C(F)F)c2)[C@@H](C(=O)Nc2cccc(F)c2F)C1=O [Compound 1122]	90	90	90	30	70	70	90	60	70	70	80	70	30	100	25	90	90	50	90	50	pest or weed control at 500 g/ha [1, 15]: 90%; pest or weed control at 500 g/ha [11]: 60%; pest or weed control at 125 g/ha [12]: 20%; pest or weed control at 500 g/ha [12]: 40%; pest or weed control at 125 g/ha (Kochia (Kochia scoparia) [13]): 60%; pest or weed control at 500 g/ha (Kochia (Kochia scoparia) [13]): 60%
CN1C[C@H](c2csc(C(F)F)c2)[C@@H](C(=O)Nc2ccccc2F)C1=O [Compound 1123]	90	90	90	0	50	40	60	60	80	20	60	70	0	100	25	90	90	20	80	40	pest or weed control at 500 g/ha [1, 15]: 90%; pest or weed control at 500 g/ha [11]: 50%; pest or weed control at 125 g/ha [12]: 0%; pest or weed control at 500 g/ha [12]: 20%; pest or weed control at 125 g/ha (Kochia (Kochia scoparia) [13]): 60%; pest or weed control at 500 g/ha (Kochia (Kochia scoparia) [13]): 70%
CN1CC(c2cccc(/C=C/Cl)c2)C(C(=O)Nc2ccccc2F)C1=O (stereo not drawn) [Compound 1129]	80	90	90	0	0	20	50	0	50	0	0	20	0	70	0	40	90	0	0	0	pest or weed control at 500 g/ha [1, 14]: 90%; pest or weed control at 500 g/ha [11]: 0%; pest or weed control at 125 g/ha [12]: 0%; pest or weed control at 500 g/ha [12]: 0%; pest or weed control at 125 g/ha (Kochia (Kochia scoparia) [13]): 0%; pest or weed control at 500 g/ha (Kochia (Kochia scoparia) [13]): 0%
